According to patent publication US20260263401A1, “Topical composition and uses thereof” (UNIVERSIDADE DE COIMBRA, priority 2022, published 2026):
Where “and” joins values, the source holds several entries; their conditions need not be identical. Equal values may be shown once. Entries after “also recorded” stand apart in the source; their conditions may differ.

How the values were obtained:
THP-1 cells = experiment: Maturation of THP-1 cells assessed by up-regulation of co-stimulatory molecules CD86 and CD54; settings: for levels of CD54 and CD86, allergen alone: 24 h, DNFB 8 μM, MI 100 μM; for CD54 and CD86 maturation levels, pre-incubation before allergen: pre-incubation (20 mM) before 24 h DNFB (8 μM) and MI (100 μM)
Method: In an embodiment, the THP-1 cell line has been used as a dendritic cell (DC) surrogate for skin sensitizers hazard, following the OECD guidelines. […] The THP-1 cells are stabilized overnight at a density of 5×10^5 cells/mL. On the day after, cells are seeded in 12-well plates at a density of 8×10^5 cells/well and incubated for 24 h with medium (control), Dimethyl sulfoxide (DMSO) (allergens solvent) or with 20 mM of each inhibitor of ACD (NAC), (LYS) or mixture (NAC+LYS). In addition, sensitization is induced with the strong skin allergen 1-fluoro-2,4-dinitrobenzene (DNFB) (8 μM) or Methylisothiazolinone (MI) (100 μM) for 24 h. At the end of the incubation period, cells are washed with ice-cold PBS supplemented with 1% (v/v) inactivated FBS, centrifuged at 300×g for 5 min at 4° C. and pellets are dissolved in ice-cold PBS supplemented with 1% (v/v) inactivated FBS. Then, 100 µL of the cell suspension are incubated with, or without, 3 μL of anti-human CD54 antibody (#353111, Biolegend, San Diego, CA, USA) or anti-human CD86 (#305414, Biolegend, San Diego, CA, USA) antibody for 30 min at 4° C. […] A total of 1×10^4 living cells are considered for analysis. The CD86 and CD54 levels are analyzed by flow cytometry with the acquisition channels FL1 and FL4. Based on the geometric mean fluorescence intensity (MFI), the relative fluorescence intensity (RFI) of CD86 and CD54 for positive control cells and chemical-treated cells is calculated according to the following equation: […]

BALB/c mice = experiment: Murine local lymph node assay (BRDU-LLNA, flow cytometry); settings: for skin ulcerations, allergen alone (mice ears): topical on ears, days 1-3
Method: In vivo validation of the efficacy of the hydrogel enriched with the best mixture of molecules, to avoid the development of skin sensitization using the murine local lymph node assay (LLNA)
This event can be confirmed using the in vivo test Local lymph node assay (LLNA), which is evaluated by flow cytometry (FCM) using the OECD Guideline for the testing of chemicals: BRDU (bromodeoxyuridine) ELISA (enzyme linked immunosorbent assay) or FCM 442B, as previously described and revised on OECD TG 442B [41].
During the entire procedure, the daily weight record is made to assess the welfare of the animals. […]
In an embodiment, on day 5, animals are intraperitoneally injected with 100 μl of BrdU mixture (20 mg/mL) in PBS. […] LNCs are stained with trypan blue (Sigma) and counted using a hemocytometer. LNCs (1.5×10^6 cells/mL) are prepared using a commercially FITC BrdU Flow Kit-Catalog No. 559619 (BD Biosciences, San Jose, CA, USA) and further analyzed by flow cytometry using a BD Accuri™ C6 Flow Cytometer (BD Biosciences, San Jose, CA, USA). Stimulation index (SI) values for each sample are calculated using the formula described in the OECD test guideline (TG 442B) [41].

[1] = test system: NRF2 dependent genes in HaCaT; experiment: Expression of NRF2 dependent genes in keratinocytes (real time PCR); assay type: cell-based, human; settings: 6 h
Method: HaCaT is cultured with Dulbecco's Modified Eagle's Medium (DMEM) (Sigma-Aldrich, St. Louis, MO, USA), supplemented with 10% (v/v) heat-inactivated fetal bovine serum (FBS), 1% (v/v) antibiotic solution (100 U/mL penicillin, 100 μg/mL streptomycin) (Gibco, Carlsbad, CA, USA), 3.7 g/L sodium bicarbonate and 1 mM sodium pyruvate (Sigma-Aldrich, St. Louis, MO, USA).
In an embodiment, HaCaT cells are seeded in 6-well plates at a density of 6×10^5 cells/well and allowed to adhere for 24 h. After that, cells are incubated for 24 h with exposure medium (control) or treated with 10 mM of NAC, 10 mM of LYS, 8 μM of DNFB, 100 μM of MI, or 10 mM+DNFB, 10 mM LYS+DNFB and 10 mM+MI, 10 mM LYS+MI for 6 h or 24 h.
In an embodiment, total RNA (ribonucleic acid) is extracted from HaCaT treated cells, as previously described by our group [37], with NZYol reagent, according to the manufacturer's instructions and its concentration is determined by OD260 measurement using a NanoDrop spectrophotometer (Thermo Scientific, Wilmington, DE, USA). Samples are stored in RNA Storage Solution at −80° C. until use. Total RNA (1 g) is reverse-transcribed using the iScript Select cDNA Synthesis Kit, and real-time reverse transcriptase-polymerase chain reaction (RT-PCR) reactions are performed, in duplicate for each sample, on a Bio-Rad MyCycler iQ5 (Hercules, CA, USA), as previously described by our group [38].
In an embodiment, after amplification, a threshold is set for each gene and Ct values are calculated for all samples. Gene expression changes are analyzed using Bio-Rad CFX Maestro 1.1 system software (Hercules, CA, USA). The results are normalized using Hprt-1 as the reference gene. Primer sequences are designed using Beacon Designer software version 7.7 (Premier Biosoft International, Palo Alto, CA, USA) and thoroughly tested.

[2] = Cysteine depletion protocol (glutathione in solution depletion); settings: FIG. 1A
Method: In an embodiment, Cysteine depletion Protocol-Glutathione in solution depletion protocol—“in house development protocol” was applied: • In a test tube, mix 10 μL of the 100 mM test chemical solution with 190 μL of GSH solution (20 μL of GSH 2 mM and 170 μL of PB) and Incubated at RT, protected from light, for 1 h in a tube roller (40 rpm) • […]; [test chemical]f=5 mM; [GSH]f=0.2 mM; • 20 μL of Ellman's reagent 10 mM, a thiol sensitive colorimetric reagent was added. Mix gently by tapping manually in the test tube and incubate for 10 min at RT, in a test tube rotator protected from light; • The absorbance was read in a microplate reader at 405 nm. • Note: For each assay, a fresh Glutathione stock of 50 mM (0.00768 g in 500 μL of PBS) and the second stock of 2 mM in PBS (2 μL of the […] solution+48 μl of PBS) were freshly prepared.
In an embodiment, Control and Test Chemical Preparation was applied: • DNFB is used as the positive control for the assay in every assay run. For the negative control LA is used and for the reference control three types of reference controls are included in each study: • Reference control A is made with the solvent DMSO, with incubation with Ellman's reagent and is used to calculate the maximum fluorescence or absorbance in the presence of CYS containing peptides. […]
Test Chemicals: In an embodiment, test chemicals were pre-weighted into 1.5 mL test tubes and dissolved in 1 mL of DMSO to prepare a 100 mM solution immediately before use. The weight of the test chemical to be added to the vial is determined based on the molecular weight and purity. […]
In an embodiment, for the data analysis, the percent depletion of peptide is determined by using the following formula: […]

[3] = test system: Poly-L-Lysine Hydrobromide (PLL); experiment: Lysine depletion protocol (in chemico reactivity towards lysine); settings: 20 mM molecule incubated 1 h with DNFB 5 mM; FIG. 1B
Method: In an embodiment, a Lysine depletion Protocol—“in house development protocol” was applied, comprising: Dissolve 0.01 g of Poly-L-Lysine Hydrobromide (PLL) (Sigma, P1399) in 100 mL of purified water (use within 2 months). Filter the solution with a syringe filter to remove aggregates and store ate 4° C. for further use. For plate coating add 50 μL of PLL to each well of the 96 black bottom glass microplate (Corning ref 45806) and incubate for 2 hours at 37° C. or 24 h at room temperature.
In an embodiment, after the coating procedure, the contents of the plate were discarded into a sink and the plate is washed 3 times with 200 μL of PBS per well. Blot any residual PBS by firmly tapping the plate upside-down on absorbent paper. 20 mM of each potential ACD inhibitory molecule/mixture is added and incubated with 70 μl of the strong skin sensitizer 1-fluoro-2,4-dinitrobenzene (DNFB) (5 mM in DMSO) for 1h; the mixture was transferred to the plate and incubated for 24 h at 37° C. The contents of the plate were discarded and the wells were washed 3 times with PBS as previously reported. 70 μL of 10 μM Fluorescein-5-Ex-Succinimidyl Ester (FSE) were added and incubated for 1 h in the dark at 37° C. The contents of the plate were discarded; the wells were washed 3 times with PBS as previously stated. The fluorescence was read in a microplate reader (Exc 485±20 nm and Em 530±30 nm). Synergy™ HT plate reader (BioTek Instruments, Inc., Winooski, VT, USA): Bottom read with a sensibility of 50. […]
In an embodiment, Reference control A is made with the solvent DMSO, with incubation with FSE and is used to calculate the maximum fluorescence or absorbance in the presence of LYS. […]
In an embodiment, Test chemicals were pre-weighted into 1.5 mL test tubes and dissolved in 1 mL of DMSO to prepare a 100 mM solution immediately before use. The weight of the test chemical to be added to the vial was determined based on the molecular weight and purity. […]
In an embodiment, for the data Analysis the percentage of peptide depletion is determined by using the following formula: […]

[4] = test system: SkinEthic™ Reconstructed Human Epidermis (RHE); experiment: Skin irritation, SkinEthic Reconstructed Human Epidermis (RHE), MTT assay, OECD TG 439; assay type: cell-based; settings: 42 min exposure, 42 h post-incubation, three tissue replicates, relative to PBS control, <50% = irritant, sulfate
Method: In an embodiment, skin irritation is evaluated using the SkinEthic™ Reconstructed Human Epidermis (RHE) model (EPISKIN Laboratories, Lyon, France), in compliance with the OECD Test Guideline No. 439-In Vitro Skin Irritation: Reconstructed
Human Epidermis Test Method. The RHE model consists of a differentiated three-dimensional epi-dermal tissue of human keratinocytes grown on a 0.5 cm^2 surface inert polycarbonate filter in a chemically defined medium at the air-liquid interface. Two specific media provided by EPISKIN are used: maintenance and growth media. […] The experiment also includes other inserts treated with PBS or 5% (w/v in water) SDS used as negative and positive controls, respectively. […] Tissue viability is assessed using the MTT (3-(4,5-dimethylthiazol-2-yl)-2,5-diphenyl-2H-tetrazolium bromide) assay. For that, tissues are incubated with MTT (1 mg/mL) at 37° C. for 3h; then the MTT solution was removed, and formazan crystals were dissolved with isopropanol. The absorbance was measured at 570 nm using a SpectraMax Plus 384 Spectrophotometer. […] If the tissue viability value is <50%, the samples are classified as irritants.

[5] = chelating agent; cited from earlier work
[6] = incubated before DNFB, vs DNFB alone
[7] = incubated before MI, vs MI alone

Cn1sccc1=O [MI, Methylisothiazolinone, reference compound]
levels of CD54 and CD86, allergen alone (THP-1 cells): significantly increases; also recorded: increase
skin ulcerations, allergen alone (mice ears) (BALB/c mice): induce skin ulcerations

N[C@@H](CCC(=O)N[C@@H](CS)C(=O)NCC(=O)O)C(=O)O [GSH, Glutathione]
CD54 and CD86 maturation levels, pre-incubation before allergen (THP-1 cells): significantly decrease
HMOX1 expression [1, 6]: significantly decrease
SOD1 expression [1, 6]: significantly decrease
HMOX1 expression [1, 7]: significantly decrease

N[C@@H](CCS)C(=O)O [HOMO, homocysteine]
CD54 and CD86 maturation levels, pre-incubation before allergen (THP-1 cells): significantly decrease
HMOX1 expression [1, 6]: significantly decrease
SOD1 expression [1, 6]: significantly decrease
TRX1 expression [1, 7]: significantly decrease

O=C(O)C(S)C(S)C(=O)O (stereo not shown) [DMSA, 2,3 dimercaptosuccinic acid]
CD54 and CD86 maturation levels, pre-incubation before allergen (THP-1 cells): significantly decrease

N[C@@H](CS)C(=O)O [CYS, cysteine]
reactivity of the strong allergen DNFB towards cysteine (Glutathione depletion) [2]: significantly inhibit
CD54 and CD86 maturation levels, pre-incubation before allergen (THP-1 cells): significantly decrease
HMOX1 expression [1, 6]: significantly decrease
TRX1 expression [1, 6]: significantly decrease
reactivity of the strong allergen DNFB towards lysine (Lysine depletion) [3]: significantly inhibit

CCCCCCCCCCCCOS(=O)(=O)[O-].[Na+] [SDS, sodium dodecyl sulfate]
Tissue viability (%) ([4]; listed as SDS (5%)): 1.41% and 1.44% and 1.62%
Tissue viability (%) [4]: significantly decrease

CSCC[C@H](N)C(=O)O [MET, methionine]
CD54 and CD86 maturation levels, pre-incubation before allergen (THP-1 cells): significantly decrease
GST expression [1, 7]: significantly decrease
NQO1 expression [1, 7]: significantly decrease

O=[N+]([O-])c1ccc(F)c([N+](=O)[O-])c1 [DNFB, 1-fluoro-2,4-dinitrobenzene, reference compound]
levels of CD54 and CD86, allergen alone (THP-1 cells): significantly increases; also recorded: increase
presence of eosinophils in the ears (histology) (BALB/c mice; DNFB treated ears, FIG. 13B (gel 100 mM)): presence of eosinophils
skin ulcerations, allergen alone (mice ears) (BALB/c mice): induce skin ulcerations

O=C(O)CN(CCN(CC(=O)O)CC(=O)O)CCN(CC(=O)O)CC(=O)O [diethylenetriaminepentaacetic]
prevention of nickel, chromium, and copper dermatitis [5]: can prevent
